For one data set, the system named is ai-receptor. The note with it: compared with prazosin hydrochloride; cited from earlier work.
Data set [1] deals with rabbit prostate, urethra and vesical triangle (trigone of the bladder). To be noted: rabbit tissues; cited from earlier work.
Data set [2] deals with human urethra and vesical triangle. To be noted: human tissues; cited from earlier work.
A short description of data set [3]: Solubility of AB-250 in water, ethanol and aqueous alcohol. Format: physicochemical. From the text: 1. Data on the solubility increasing effect of aqueous alcohol:
The solubility of AB-250 in water of pH 5-7 was 0.4% and that in ethanol was 0.03%.
It is, thus, evident that the use of aqueous ethanol results in a remarkable increase in the solubility of the active compound.

≈ marks a conversion by molar mass, not a printed value. Where two headings read alike, the source gives them in different places.

As usually defined, the solubility is the concentration that dissolves in the medium under given conditions.

As for `CCOc1ccccc1OCCNC(C)Cc1ccc(OC)c(S(N)(=O)=O)c1` (stereo not drawn) [amusulosin, 5-[2-[[2-(o-Ethoxyphenoxy)-ethyl]amino]propyl]-2-methoxybenzenesulfonamide], the ai-receptor blocking activity result in the data set with ai-receptor is on record as “higher than that of prazosin hydrochloride”. Moreover, the “contraction of the rabbit prostate, urethra and vesical triangle” value in data set [1] is reported as “reduces the contraction”. In data set [2], the “contraction of the human urethra and vesical triangle” value is listed as “reduces the contraction”.
As to `CCOc1ccccc1OCCNC(C)Cc1ccc(OC)c(S(N)(=O)=O)c1` (stereo not drawn) [AB-250, 5-[2-[[2-(o-Ethoxyphenoxy)-ethyl]amino]propyl]-2-methoxybenzenesulfonamide], the solubility turned out to be 51 mg/mL (≈ 125 mM) in data set [3] (50% ethanol, organic solvent or mixture, Michaelis buffer containing 50% of ethanol, pH 8, read-out: solubility in aqueous ethanol containing 50% of ethanol); 48 mg/mL (≈ 117 mM) in data set [3] (60% ethanol, organic solvent or mixture, Michaelis buffer containing 60% of ethanol, pH 7, read-out: solubility in aqueous ethanol containing 60% of ethanol); 0.3 mg/mL (≈ 0.734 mM) in data set [3] (ethanol, organic solvent or mixture, read-out: solubility in ethanol); 4 mg/mL (≈ 9.79 mM) in data set [3] (water of pH 5-7, read-out: solubility in water). In addition, in data set [3] (aqueous alcohol compared with water and pure alcohol), the “greater solubility in aqueous alcohol” value is on record as “no less than 10 fold”. In addition, in data set [3] (isopropyl alcohol used in lieu of ethanol), the “solubility increasing effect with isopropyl alcohol in lieu of ethanol” value was “More or less the same effect”.

The record behind these values is EP0416804B1, “External preparation containing amusulosin” (YAMANOUCHI PHARMACEUTICAL CO., LTD., priority 1989, dated 1991).
